The nature of data set [1]: Pharmacokinetics analysis of 3r in CD-1 mice. The settings on record: 5 mg/kg. The class given is in vivo.
The nature of data set [2]: Solubility in simulated gastric/intestinal fluids. In kind it is physicochemical. The settings on record: simulated intestinal fluid, pH 6.8.
In another data set the test system is KM mice. Nature of the data set: Acute toxicity in mice. In kind it is in vivo.
Data set [3] relates to G-6-Pase mRNA expression in HepG2 cell. Nature of the data set: Cell-based assay for inhibition on the mRNA expression of G-6-Pase.
The subject of data set [4] is PEPCK mRNA expression in HepG2 cell. Nature of the data set: Cell-based assay for inhibition on the mRNA expression of PEPCK.
The nature of data set [5]: Stability in the mouse liver microsome. The settings on record: for microsomal CLint at 0.5 μM: CD-1, mouse, liver microsomes, pH 7.4; for Clapp / Clh / Eh / k: CD-1 mouse liver microsomes. On the technique in general: Liver microsomes are vesicles of endoplasmic reticulum, rich in cytochrome P450 enzymes.
A short description of data set [6]: Pharmacokinetics analysis of 8r in SD rats. The class given is in vivo. The settings on record: 5 mg/kg; for T1/2: SD rats.
In data set [7] the target is T1, PDE9A2 (181–506) (Homo sapiens, UniProt O76083). Nature of the data set: PDE enzymatic assay, PDE9A2 catalytic domain. The class given is biochemical.
T1 sequence (O76083 241-566): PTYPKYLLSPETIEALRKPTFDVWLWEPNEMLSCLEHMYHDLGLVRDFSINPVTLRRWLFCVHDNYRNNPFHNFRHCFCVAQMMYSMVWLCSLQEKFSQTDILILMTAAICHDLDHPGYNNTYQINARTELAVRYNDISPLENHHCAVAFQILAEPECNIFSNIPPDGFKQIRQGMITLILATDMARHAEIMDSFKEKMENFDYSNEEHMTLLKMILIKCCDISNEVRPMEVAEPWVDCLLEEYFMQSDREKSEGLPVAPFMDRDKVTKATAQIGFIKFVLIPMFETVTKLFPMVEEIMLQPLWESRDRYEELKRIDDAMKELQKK
Another data set is described as follows: Pharmacokinetics of 28s. The class given is in vivo. The settings on record: blood, po, 5 mg/kg.
The target in data set [8] is T1, PDE9A2 (181–506). The settings on record: read-out: IC50 ± SD, PDE9A2 (181–506); 28s from previous report; cited from earlier work.
Where [9] appears, read: HepG2 cell-based assay, general statement.
Where [10] appears, read: HepG2 cell, cAMP/dexamethasone stimulation, 300 nM, in words.

Here are results for seven compounds from paper PMC4281101 (Journal of Medicinal Chemistry, 2014).

≈ marks a conversion by molar mass, not a printed value.

`COc1ccc(NC(=O)[C@@H](C)Nc2nc3c(cnn3C3CCCC3)c(=O)[nH]2)cc1` [Compound 3r, (R)-2-((1-Cyclopentyl-4-hydroxy-1H-pyrazolo[3,4-d]pyrimidin-6-yl)amino)-N-(4-methoxyphenyl)propanamide] showed a T1/2 in [1] (iv, CD-1 mice) of 5.34 ± 1.43 h. In [1] (male, CD-1, mouse, blood, iv), this compound showed an MRT inf of 1.08 ± 0.08 h, a Vd of 1.53 ± 0.15 L/kg and a clearance of 23.8 mL/min/kg. Moreover, in [1] (male, CD-1, mouse, blood, iv, C0, iv, CD-1 mice), the C0 was determined as 24500 ± 7520 ng/mL. In data set [1] (male, CD-1, mouse, blood, po), the Cmax came to 217 ng/mL, the MRT inf came to 2.65 ± 0.82 h, the Tmax stood at 0.58 ± 0.38 h and the bioavailability was 9.8 ± 3.1%. In data set [1] (po, CD-1 mice), this compound had a CL of 14.6 ± 3.5 L h^–1 kg^–1, a T1/2 of 1.67 ± 0.04 h and a Vss of 35.0 ± 7.9 L/kg. In [2], this compound came in with a solubility of 31 ± 4 µg/mL (≈ 78.2 µM). Further, in the data set with KM mice (single oral dose), the dose well tolerated is recorded as no more than 1200 mg/kg. Further, in the data set on KM mice (single oral dose up to 1200 mg/kg), the acute toxicity result is on record as “no acute toxicity”. In addition, the “abnormal behaviors, water/food consumption and body weight” value with KM mice (single oral doses 600 or 1200 mg/kg, 2 weeks) is “no abnormal behaviors and significant changes of water/food consumption and body weight were observed”. The “mRNA expression of glucose 6-phosphatase” value in data set [3] (setting [9]) is listed as “inhibits the mRNA expression”. Also, the “8-Br-cAMP/dexamethasone-induced expression of G-6-Pase” value in data set [3] (HepG2 cells, 10 nM, in words) is “back to the basal level”. Also, the “mRNA expression of phosphoenolpyruvate carboxykinase” value in data set [4] (setting [9]) was “inhibits the mRNA expression”. Moreover, in data set [4] (HepG2 cells, 10 nM, in words), the “8-Br-cAMP/dexamethasone-induced expression of PEPCK” value is recorded as “back to the basal level”. In [5], this compound had a microsomal CLint at 0.5 μM of 62 µL/min/mg, a Clapp of 244.3 mL min^–1 kg^–1, a Clh of 65.8 mL min^–1 kg^–1 and an Eh of 73.1%. Also, the k in data set [5] came out at 0.03102.

Turning to `C[C@@H](Nc1nc2c(cnn2C2CCCC2)c(=O)[nH]1)C(=O)Nc1ccc(F)cc1` [Compound 8r, (R)-2-((1-Cyclopentyl-4-oxo-4,5-dihydro-1H-pyrazolo[3,4-d]pyrimidin-6-yl)amino)-N-(4-fluorophenyl)propanamide], the T1/2 in data set [6] (iv) is given as 1.01 ± 0.09 h. Besides, in [6] (male, SD, rat, blood, iv), the C0 is 19100 ± 428 ng/mL, the MRT inf was found to be 0.59 ± 0.13 h, the Vd stood at 2.58 ± 0.07 L/kg and the clearance is 29.7 mL/min/kg. For the same compound, in data set [6] (male, SD, rat, blood, po), the highest level (Cmax) was 135 ± 55 ng/mL, the MRT inf came to 3.94 ± 1.11 h, the Tmax was found to be 1 ± 0.87 h and the bioavailability amounted to 18 ± 7%. The compound also came in with a T1/2 in data set [6] (po) of 4.08 ± 1.00 h.

In the case of `COc1ccc(NC(=O)[C@@H](C)Nc2nc3c(cnn3-c3ccccc3Cl)c(=O)[nH]2)cc1` [Compound 28r, (R)-2-((1-(2-Chlorophenyl)-4-hydroxy-1H-pyrazolo[3,4-d]pyrimidin-6-yl)amino)-N-(4-methoxyphenyl)propanamide], at PDE9A2 (181–506) [7], the Ki turned out to be 5 nM.

On to `COc1ccc(NC(=O)[C@H](C)Nc2nc3c(cnn3-c3ccccc3Cl)c(=O)[nH]2)cc1` [Compound 28s], for which the affinity on PDE9A2 (181–506) [7] corresponds to a Ki of 16 nM. In the data set “Pharmacokinetics of 28s”, this compound gave a Cmax of 16 ng/mL. Besides, the IC50 at PDE9A2 (181–506) [8] is 21 ± 5 nM.

With `C[C@]12CC[C@H]3[C@@H](CCC4=CC(=O)CC[C@@]43C)[C@@H]1CC[C@@H]2O` [testosterone], in data set [5], the microsomal CLint at 0.5 μM was found to be 692 µL/min/mg, the Clapp came out at 2725.1 mL min^–1 kg^–1, the Clh is 87.1 mL min^–1 kg^–1 and the Eh worked out at 96.8%. In [5], this compound came in with a k of 0.346.

On to `CC(=O)CC(c1ccccc1)c1c(O)c2ccccc2oc1=O` (stereo not drawn) [warfarin], for which, in [5], the Clapp came to 30.9 mL min^–1 kg^–1 and the Clh is reported as 23.0 mL min^–1 kg^–1.

Turning to insulin, the “mRNA expression of G-6-Pase” value in [3] (setting [10]) is “to the basal level”. Also, in data set [4] (setting [10]), the “mRNA expression of PEPCK” value is reported as “to the basal level”.

By MRT inf is commonly meant a mean duration of stay, worked out from the concentration-time curve. The Vd is the apparent volume that relates the amount in the body to the concentration in plasma or blood. Read a high Vd as extensive tissue distribution. For orientation: clearance means the volume of plasma or blood freed of the substance per unit of time. As usually defined, the Cmax is the maximum level reached in the sampled fluid or tissue. What is called Tmax is the time at which the peak concentration occurs. Usually bioavailability stands for the share of a dose that reaches the circulation, judged against a reference dose that is usually intravenous. The low end stands for little systemic uptake, the high end for much systemic uptake. Usually solubility stands for the concentration that dissolves in the medium under given conditions. A lower solubility goes with a poorly soluble substance. As usually defined, the microsomal CLint is the capacity of the preparation to metabolise the compound, expressed as a volume cleared per time. Read a low microsomal CLint as slow turnover. As a reminder, the Ki is the dissociation constant of the complex between target and ligand, obtained from inhibition or displacement. Higher therefore signals weaker binding. Broadly, the IC50 is the concentration that gives 50% inhibition.
